Molecular target: T1, AUX1 (Arabidopsis thaliana, UniProt Q96247)
T1 sequence (Q96247 1-485): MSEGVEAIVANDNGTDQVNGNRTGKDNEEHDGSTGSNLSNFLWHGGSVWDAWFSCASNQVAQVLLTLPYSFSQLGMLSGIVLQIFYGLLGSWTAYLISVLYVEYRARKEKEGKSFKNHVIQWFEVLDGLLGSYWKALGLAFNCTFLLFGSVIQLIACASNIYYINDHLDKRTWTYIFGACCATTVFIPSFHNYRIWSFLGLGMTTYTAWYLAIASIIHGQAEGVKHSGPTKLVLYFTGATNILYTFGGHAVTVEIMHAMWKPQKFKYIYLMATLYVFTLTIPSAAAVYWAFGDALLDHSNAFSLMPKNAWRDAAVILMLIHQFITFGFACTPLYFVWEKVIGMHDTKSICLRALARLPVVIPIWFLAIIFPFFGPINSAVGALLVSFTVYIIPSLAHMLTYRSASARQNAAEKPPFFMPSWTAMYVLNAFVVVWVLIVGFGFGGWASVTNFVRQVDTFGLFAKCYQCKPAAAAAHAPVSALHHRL
Assay: inhibition of [3H]IAA uptake in AUX1-expressing HEK293T cells
Type: cell-based
Conditions: about 30 nM [3H]IAA, pH 6.0, 37 °C, 10 min

Compound	% relative auxin accumulation at 50 μM inhibitor
O=C(O)COc1cccc2ccccc12 [1-NOA, 1-naphthoxyacetic acid]	reduced the uptake of [^3H]IAA in AUX1-expressing HEK293T cells
O=C(O)COc1ccc2ccccc2c1 [2-NOA, 2-naphthoxyacetic acid]	reduced the uptake of [^3H]IAA in AUX1-expressing HEK293T cells
O=C(O)Cc1ccc(O)c(Cl)c1 [CHPAA, 3-chloro-4-hydroxyphenylacetic acid]	reduced the uptake of [^3H]IAA in AUX1-expressing HEK293T cells

— paper PMC12337342 (Proceedings of the National Academy of Sciences of the …, 2025)
